Test results published in patent publication US20150183737A1, “COMPOSITIONS AND METHODS FOR SUBSTRATE-SELECTIVE INHIBITION OF ENDOCANNABINOID OXYGENATION” (Vanderbilt University, priority 2012, published 2015).
“Also recorded” adds a separate entry of the source. Like-named read-outs stand apart in the source and are kept apart here.

Assays:
[1] = Chiral HPLC of (R)-profen-treated DRG extracts (racemization); format: in vitro ADME, mouse
Description: A Daicel chiralpak chiral column was used in conjunction with a normal-phase HPLC gradient to separate the profen enantiomers.

[2] = test system: ICR mice; assay: Rectal temperature, catalepsy and hot plate antinociception; settings: 10 mg/kg i.p.
[3] = test system: brain eCB, AA and PG levels; assay: Brain eCB, NAE, MAG, AA and PG levels after i.p. injection; format: in vivo, mice; settings: 10 mg/kg i.p., 2 hours
Method: 5-7 week old male ICR mice were used for all experiments with the exception of knockout animals (Harlan, Indianapolis, Ind., United States of America). Mice were housed 5 per […]. All behavioral tests were conducted during the light cycle between 0900 and 1700. KO and WT littermate controls for FAAH^(−/−) and COX-2^(−/−) mice were derived from heterozygote breeding pairs, bred and genotyped as described in Uddin et al., 2011. CB1^(−/−) mice were bred from homozygote breeding pairs and genotyped as described in Pan et al., 2008. Mice were group-housed on a 12:12 light-dark cycle (lights on at 06:00), with food and water available ad libitum. All animal studies were approved by the Vanderbilt Institutional Animal Care and Use Committee and conducted in accordance with the Guide for the Care and Use of Laboratory Animals of the United States National Institutes of Health.
(§1) Mice were sacrificed by cervical dislocation and decapitation. The brain, lungs, liver, stomach, small intestines, and kidneys were then rapidly removed and frozen on a metal block in dry ice. The tissue was then placed in a tube and stored at −80° C. until extraction, usually one day after harvesting. For PG and eCB analysis, lipid extraction from tissue was carried out as described in Patel et al., 2009.
(§2) Analytes were quantified using LC-MS/MS on a Quantum triple-quadrupole mass spectrometer in positive-ion mode using selected reaction monitoring. Detection of eicosanoids was performed as described in Kingsley & Marnett, 2007. For fatty acid analysis the mobile phases used were 80 μM AgOAc with 0.1% (v/v) acetic acid in H2O (solvent A) and 120 μM AgOAc with 0.1% (v/v) acetic acid in MeOH (solvent B). The analytes were eluted using a gradient from 20% A to 99% B over 5 minutes. The transitions used were m/z 300→282 for PEA, m/z 328→310 for SEA, m/z 434→416 for OEA, m/z 456→438 for AEA, m/z 464→446 for AEA-d8, m/z 331→257 for 2-PG, m/z 359→285 for 2-SG, m/z 463→389 for 2-OG, m/z 485→411 for 2-AG, m/z 493→419 for 2-AG-d8, m/z 519→409 for AA, and m/z 527→417 for AA-d8. Peak areas for the analytes were normalized to the appropriate internal standard and then normalized to tissue mass for in vivo samples.

[4] = test system: peripheral tissue eCB, NAE, MAG and PG levels; assay: Peripheral tissue NAE, MAG and PG levels after i.p. injection; format: in vivo, mice; settings: liver
Method: as §1
as §2, with “samples. […]” for “samples.”

[5] = test system: ICR mice; assay: Novel open field test; format: in vivo; settings: 10 mg/kg
Method: Animals were tested for open-field activity in a novel environment one hour after i.p. injection of compound as described in Sumislawski et al., 2011. Briefly, one-hour sessions were performed using automated experimental chambers (27.9 27.9 cm; MEDOFA-510; MED Associates, Ga., Vermont, United States of America) under constant illumination within a sound-attenuated room. Analysis of open field activity was performed using Activity Monitor v5.10 (MED Associates).

[6] = test system: ICR mice; assay: Light-dark box; format: in vivo; settings: 10 mg/kg
[7] = test system: ICR mice; assay: Elevated plus-maze (EPM); format: in vivo; settings: 10 mg/kg
[8] = target: T1, COX-2 in RAW 264.7 macrophages (Mus musculus, UniProt Q05769); assay: RAW cells assay: oxygenation of 2-AG and AA; format: cell-based
T1 construct: endogenous in cells; host or cells: RAW 264.7 macrophages stimulated with LPS (and GM-CSF / interferon γ where described)
T1 sequence (Q05769 18-604): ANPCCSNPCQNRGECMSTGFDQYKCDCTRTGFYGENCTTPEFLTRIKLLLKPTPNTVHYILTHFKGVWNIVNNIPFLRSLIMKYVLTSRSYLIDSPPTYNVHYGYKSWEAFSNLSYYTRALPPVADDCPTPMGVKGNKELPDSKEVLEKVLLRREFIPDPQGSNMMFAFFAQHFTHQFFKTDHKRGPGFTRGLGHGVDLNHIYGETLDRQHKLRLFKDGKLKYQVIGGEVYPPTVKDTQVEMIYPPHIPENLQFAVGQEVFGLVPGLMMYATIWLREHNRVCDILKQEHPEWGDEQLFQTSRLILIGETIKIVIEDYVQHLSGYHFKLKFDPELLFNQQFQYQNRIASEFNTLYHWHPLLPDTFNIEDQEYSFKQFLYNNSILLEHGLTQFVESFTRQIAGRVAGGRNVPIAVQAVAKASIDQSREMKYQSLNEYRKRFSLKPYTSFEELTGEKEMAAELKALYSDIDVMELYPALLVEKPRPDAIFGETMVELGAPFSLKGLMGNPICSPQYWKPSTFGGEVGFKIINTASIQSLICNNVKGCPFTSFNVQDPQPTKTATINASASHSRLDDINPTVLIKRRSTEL
Method: Two hours after stimulation, varying doses of inhibitor were added to the cell media and 6 hr after stimulation the media were collected and analyzed by LC-MS-MS for prostaglandin levels.
The cells were then stimulated overnight with 20 ng/ml of granulocyte-macrophage colony-stimulating factor. The media was replaced in the morning with DMEM with GLUTAMAX® and the cells were stimulated with 100 ng/ml lipopolysaccharide and 20 units/ml interferon γ. Two hours after stimulation varying doses of inhibitor were added to the cell media and 6 hours after stimulation the media was collected and extracted in acidified ethyl acetate spiked with deuterated internal standards. The organic layer was dried down under a stream of nitrogen gas and reconstituted in 1:1 water:methanol and analyzed by LC-MS/MS for prostaglandin levels using the same instrumentation, column, solvents and conditions as described for the in vitro assay above.

[9] = In vivo mouse assay: plasma levels; parameters: species or system C57BL/6 mice
[10] = target: T2, purified murine COX-2 (Mus musculus, UniProt Q05769); assay: Inhibition of mCOX-2 dependent oxygenation of 2-AG and AA by profens in vitro; format: biochemical; parameters: made in house; host or cells: insect cells; settings: achiral profens; for inhibition at 10 µM: at 10 μM inhibitor, AA 5 μM, read-out: AA % Inhibition
T2 sequence (Q05769 18-604): T1 sequence (Q05769 18-604)
Method: Desired concentrations of inhibitor in DMSO or blank (DMSO) were incubated with mCOX-2 (40 nM) for 3 minutes in 100 mM Tris-HCl with 0.5 mM phenol, pH 8.0 at 37° C. After pre-incubation of enzyme and inhibitor, 5 μM of AA or 2-AG was added at 37° C. Thirty seconds later, the reaction was quenched with 200 μL of ice-cold ethyl acetate containing 0.5% acetic acid (v/v) and 1 μM PGE2-d4 and PGE2-G-d5. The solution was then vortexed and the aqueous layer frozen. The organic layer was removed and evaporated to near-dryness under nitrogen. The samples were reconstituted in 1:1 MeOH:H2O and chromatographed using a LUNA® C18(2) column (50 2 mm, 3 μm; Phenomenex, Torrance, Calif., United States of America). […] Analyte peak areas were normalized to the appropriate internal standard to determine the amount of product formation, and inhibition was determined by normalization to a DMSO control.

[11] = target: T3, FAAH (Homo sapiens, UniProt O00519); settings: in vitro; Bishay et al., 2010; cited from earlier work
T3 sequence (O00519 1-579): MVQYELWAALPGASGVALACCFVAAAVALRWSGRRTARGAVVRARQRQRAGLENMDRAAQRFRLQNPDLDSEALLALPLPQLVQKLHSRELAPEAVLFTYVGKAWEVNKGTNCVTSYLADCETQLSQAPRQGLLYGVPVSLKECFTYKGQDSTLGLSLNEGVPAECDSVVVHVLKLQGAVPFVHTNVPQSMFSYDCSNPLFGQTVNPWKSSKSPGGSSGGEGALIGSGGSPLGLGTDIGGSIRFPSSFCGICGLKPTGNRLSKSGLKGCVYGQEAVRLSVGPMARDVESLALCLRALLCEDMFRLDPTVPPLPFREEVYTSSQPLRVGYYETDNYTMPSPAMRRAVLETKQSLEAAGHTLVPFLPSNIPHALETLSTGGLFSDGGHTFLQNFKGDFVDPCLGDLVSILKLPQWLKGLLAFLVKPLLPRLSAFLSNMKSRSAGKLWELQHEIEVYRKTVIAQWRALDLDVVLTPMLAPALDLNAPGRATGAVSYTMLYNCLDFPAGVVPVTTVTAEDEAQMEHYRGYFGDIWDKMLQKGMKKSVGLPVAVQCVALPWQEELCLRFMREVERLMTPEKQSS

[12] = target: T4, COX-2 (Mus musculus, UniProt Q05769); assay: Inhibition of COX-2 oxygenation by acetaminophen and its metabolites; format: biochemical
T4 sequence (Q05769 18-604): T1 sequence (Q05769 18-604)

[13] = target: T5, COX-2 in lipopolysaccharide-activated RAW264.7 cells (Mus musculus, UniProt Q05769); assay: 2-AG oxygenation by lipopolysaccharide-activated RAW264.7 cells; format: cell-based
T5 construct: endogenous in cells; host or cells: RAW 264.7 macrophages stimulated with LPS (and GM-CSF / interferon γ where described)
T5 sequence (Q05769 18-604): T1 sequence (Q05769 18-604)

CC(C)Cc1ccc([C@@H](C)C(=O)O)cc1 [Compound 7c, (R)-ibuprofen]
Conversion to the (S)-enantiomer ([1]; DRG extracts, chiral HPLC): did not occur

Cc1c(C(=O)c2cccc3ccccc23)c2cccc3c2n1[C@H](CN1CCOCC1)CO3 [Win-55212-2]
Antinociception in the hot plate test [2]: induced | Catalepsy [2]: induced | Hypothermia (rectal temperature) [2]: induced

O=C(Nc1cccnc1)N1CCC(Cc2cccc(Oc3ccc(C(F)(F)F)cn3)c2)CC1 [PF-3845, N-3-pyridinyl-4-[[3-[[5-(trifluoromethyl)-2-pyridinyl]oxy]phenyl]methyl]-1-piperidinecarboxamide, reference compound]
Brain levels of NAEs other than AEA [3]: robustly increased | Brain AEA levels ([3]; vs vehicle): robustly increased | Liver NAE levels [4]: robust increases | Center distance travelled and center time in the open-field arena [5]: increased | Light-zone time [6]: significantly increased | Number of light-zone entries [6]: significantly increased | Overall locomotor activity in the light-dark box [6]: without significantly affecting | Open arm latency [7]: significantly reduced; also recorded: decreased | Other EPM parameters (open arm time, total distance traveled) [7]: did not affect; also recorded: did not increase

O=C(O)Cc1ccc(-c2ccccc2)c(F)c1 [Compound 3a, 2-(2-fluoro-[1,1′-biphenyl]-4-yl)acetic acid]
inhibition at 5 µM ([8]; RAW264.7, at 5 μM compound): 60% | Average plasma concentration ([9]; 10 mg/kg i.p. at 0, 8, 24, 32, 48 and 56 hr, sixteen hr after the last injection): not detected | half-life ([9]; male, C57BL/6, mouse, plasma, intraperitoneal, 10 mg/kg, read-out: Half-life (t1/2) in mouse plasma): 2 to 3 h | concentration at 72 h ([9]; single 10 mg/kg i.p. injection, 1 hr): 68 µM | concentration at 72 h ([9]; single 10 mg/kg i.p. injection, 2 hr): 50 µM | concentration at 72 h ([9]; single 10 mg/kg i.p. injection, 4 hr): 6 µM | inhibition at 10 µM [10]: 7%

C[C@@H](C(=O)O)c1ccc(-c2ccccc2)c(F)c1 [Compound 7a, (R)-flurbiprofen]
Conversion to the (S)-enantiomer [1]: did not occur | concentration at 72 h ([9]; male, C57BL/6, mouse, plasma, intraperitoneal, 10 mg/kg i.p. at 0, 8, 24, 32, 48 and 56 hr, sixteen hr after the last injection): 20 µM | IC50 [11]: > 1000 µM

CC(C)(C(=O)O)c1ccc(-c2ccccc2)c(F)c1 [Compound 4a, 2-(2-fluoro-[1,1′-biphenyl]-4-yl)-2-methylpropanoic acid]
inhibition at 25 µM ([8]; RAW264.7, at 25 μM compound): 40% | IC50 ([8]; conversion of 2-AG to PGE2-G/PGD2-G): 5.2 µM | inhibition at 10 µM [10]: 5% | IC50 ([10]; murine COX-2 40 nM, 3 min preincubation, 2-AG 5 μM, 37° C., 30 s, mean ± SD, read-out: 2-AG IC50): 1.1 µM

CCCCC/C=C\C/C=C\C/C=C\C/C=C\CCCC(=O)Nc1ccc(O)cc1 [AM-404, N-(4-hydroxyphenyl)arachidonoylamide]
Selectivity for inhibition of 2-AG and AEA oxygenation compared to AA oxygenation [12]: 700 fold | Dissociation from COX-2 ([12]; in the absence of substrate): slow | Dissociation from COX-2 ([12]; in the presence of AA): rapid | IC50 ([12]; read-out: IC50 for inhibition of 2-AG oxygenation): 0.097 µM | IC50 [13]: 0.046 µM
